In publication PMC3819306, “Exploring the Binding Nature of Pyrrolidine Pocket-Dependent Interactions in the Polo-Box Domain of Polo-Like Kinase 1” (PLoS ONE, 2013):
Read-outs that look alike come from different tables or passages of the source. Where a SMILES comes first, the peptide text is derived from it.

What was measured:
Plk1 PBD [1] = molecular target: T1, Plk1 PBD (Homo sapiens, UniProt P53350); experiment: ELISA-based Plk1 PBD-binding inhibition assay
T1 construct: Mitotic 293A lysates expressing HA-EGFP-Plk1 were prepared in the TBSN buffer; expressed in transfected cells; host or cells: 293A cells, mitotic lysate
Description: The wells were washed once with PBS + 0.05% Tween 20 (PBST), and incubated with 200 µl of PBS + 1% BSA (blocking buffer) for 1 h to prevent the unoccupied sites. […] Next, the plates were washed four times with PBST, and to detect the bound HA-EGFP-Plk1, the plates were incubated for 2 h with 100 µL/well of anti-HA antibody at a concentration of 0.5 µg/mL in the blocking buffer, and then the plates were washed five times. Furthermore, the plates were incubated with 100 µL/well of secondary antibody at a 1:1,000 dilution in the blocking buffer. Afterward, the plates were washed five times with PBST and incubated with 100 µL/well of 3,3′,5,5′-tetramethylbenzidine (TMB) substrate solution (Sigma, St. Louis, MO) until a desired absorbance was achieved. The reactions were terminated by the addition of 1 N H2SO4, and the optical densities were measured at 450 nm using an ELISA plate reader (Molecular Device, Sunnyvale, CA).

PBD of Plk1 = molecular target: T2, PBD of Plk1 (Homo sapiens, UniProt P53350); experiment: Fluorescence polarization assay, Plk1 PBD; assay type: binding; settings: 25 nM 5-carboxyfluorescein-DPPLHSpTAI-OH, Figure 8, read-out: IC50 PBD1
T2 construct: The Plk1 PBD protein (residues 371−603) was purified as previously described; made in house
Description: Fluorescein-labeled peptides (5-carboxyfluorescein-DPPLHSpTAI-OH, final concentration: 25 nM) were incubated with the PBDs of Plk1, Plk2, and Plk3, respectively (final concentrations of buffer components: 10 mM Tris [pH 8.0], 1 mM EDTA, 50 mM NaCl, and 0.01% Nonidet P-40). Fluorescence polarization was analyzed 10 min after mixing all components in the 384-well format using a Molecular Devides SpectraMax Paradigm Multi-Mode Microplate Detection Platform. All experiments were performed in triplicate.

Plk1 PBD [2] = molecular target: T1, Plk1 PBD; design: method as in PMID 19597481; settings: cited from earlier work
[3] = ELISA-based assay, text values referring to Figure 2, read-out: IC50 (Plk1 PBD binding)
[4] = first-phase N-alkylated Pro derivatives, HA-EGFP-Plk1 from mitotic 293A lysates vs immobilized p-T78 peptide, Figure 2, read-out: IC50 (ELISA-based Plk1 PBD-binding assay, Figure 2B)

T1 sequence (P53350 whole entry): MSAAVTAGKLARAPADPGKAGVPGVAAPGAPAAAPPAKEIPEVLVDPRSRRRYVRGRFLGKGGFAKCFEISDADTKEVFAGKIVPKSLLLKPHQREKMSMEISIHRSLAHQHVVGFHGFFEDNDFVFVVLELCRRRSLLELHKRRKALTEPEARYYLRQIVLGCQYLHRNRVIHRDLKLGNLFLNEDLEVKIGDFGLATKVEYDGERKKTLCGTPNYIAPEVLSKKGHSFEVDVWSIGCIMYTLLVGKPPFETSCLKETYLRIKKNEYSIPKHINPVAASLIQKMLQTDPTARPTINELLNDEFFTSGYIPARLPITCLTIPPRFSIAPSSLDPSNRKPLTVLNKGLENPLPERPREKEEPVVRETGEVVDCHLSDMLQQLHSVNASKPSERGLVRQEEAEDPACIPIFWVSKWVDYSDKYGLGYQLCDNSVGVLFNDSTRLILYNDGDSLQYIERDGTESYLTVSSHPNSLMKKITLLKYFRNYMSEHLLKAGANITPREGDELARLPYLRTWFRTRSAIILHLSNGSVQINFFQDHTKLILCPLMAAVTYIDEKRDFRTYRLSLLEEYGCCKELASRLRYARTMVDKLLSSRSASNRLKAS
T2 sequence (P53350 371-603): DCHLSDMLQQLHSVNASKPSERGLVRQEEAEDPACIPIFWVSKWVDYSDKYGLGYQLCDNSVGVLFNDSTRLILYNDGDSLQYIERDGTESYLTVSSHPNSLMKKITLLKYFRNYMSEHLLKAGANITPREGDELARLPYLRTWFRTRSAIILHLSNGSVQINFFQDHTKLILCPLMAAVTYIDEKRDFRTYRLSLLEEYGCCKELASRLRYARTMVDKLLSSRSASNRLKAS

Compound	IC50 (Plk1 PBD [1]; [3]) [nM]	IC50 (Plk1 PBD [1]; [4]) [nM]	IC50 (PBD of Plk1) [nM]	other results
COc1cc(CN2CCC[C@H]2C(=O)N[C@@H](CC(C)C)C(=O)N[C@@H](Cc2c[nH]cn2)C(=O)N[C@@H](CO)C(=O)N[C@H](C(=O)N[C@@H](CCSC)C(N)=O)[C@@H](C)OP(=O)(O)O)cc(OC)c1OC [PL-42, (MeO)3PhCH2PLHSpTM] (HELM PEPTIDE1{[COc1cc(CN2CCC[C@H]2C(=O)[*:2])cc(OC)c1OC].L.H.S.[C[C@@H](OP(=O)(O)O)[C@H](N[*:1])C(=O)[*:2]].M.[am]}$$$$V2.0)	1480	1640	522	–
CSCC[C@H](NC(=O)[C@@H](NC(=O)[C@H](CO)NC(=O)[C@H](Cc1c[nH]cn1)NC(=O)[C@H](CC(C)C)NC(=O)[C@@H]1CCCN1C(=O)CC12CC3CC(CC(C3)C1)C2)[C@@H](C)OP(=O)(O)O)C(N)=O [PL-55] (HELM PEPTIDE1{[O=C(CC12CC3CC(CC(C3)C1)C2)[*:2]].P.L.H.S.[C[C@@H](OP(=O)(O)O)[C@H](N[*:1])C(=O)[*:2]].M.[am]}$$$$V2.0)	–	–	131	–
CSCC[C@H](NC(=O)[C@@H](NC(=O)[C@H](CO)NC(=O)[C@H](Cc1c[nH]cn1)NC(=O)[C@H](CC(C)C)NC(=O)[C@@H]1CCCN1C(=O)CC1CCCCC1)[C@@H](C)OP(=O)(O)O)C(N)=O [PL-57] (HELM PEPTIDE1{[O=C(CC1CCCCC1)[*:2]].P.L.H.S.[C[C@@H](OP(=O)(O)O)[C@H](N[*:1])C(=O)[*:2]].M.[am]}$$$$V2.0)	–	–	–	IC50 (Plk1 PBD [1]; first-phase N-acylated cyclohexyl analogues, values printed in picture of Figure 4, read-out: IC50 (ELISA-based Plk1 PBD-binding assay, Figure 4B)): 520 nM
LHSpTA	–	–	–	binding to Plk1 PBD compared with PLHSpT (Plk1 PBD [2]): almost as efficiently as the PLHSpT did

Second part, led by results:

IC50 (Plk1 PBD [1]; [3]) [nM]	IC50 (Plk1 PBD [1]; [4]) [nM]	IC50 (PBD of Plk1) [nM]	Compound	other results
–	4470	–	CSCC[C@H](NC(=O)[C@@H](NC(=O)[C@H](CO)NC(=O)[C@H](Cc1c[nH]cn1)NC(=O)[C@H](CC(C)C)NC(=O)[C@@H]1CCCN1Cc1cc2c(cc1Cl)OCO2)[C@@H](C)OP(=O)(O)O)C(N)=O [PL-43] (HELM PEPTIDE1{[O=C([C@@H]1CCCN1Cc1cc2c(cc1Cl)OCO2)[*:2]].L.H.S.[C[C@@H](OP(=O)(O)O)[C@H](N[*:1])C(=O)[*:2]].M.[am]}$$$$V2.0)	–
360	410	–	CSCC[C@H](NC(=O)[C@@H](NC(=O)[C@H](CO)NC(=O)[C@H](Cc1c[nH]cn1)NC(=O)[C@H](CC(C)C)NC(=O)[C@@H]1CCCN1CC1CCCCC1)[C@@H](C)OP(=O)(O)O)C(N)=O [PL-49, cyclohexylmethyl-PLHSpTM] (HELM PEPTIDE1{[O=C([C@@H]1CCCN1CC1CCCCC1)[*:2]].L.H.S.[C[C@@H](OP(=O)(O)O)[C@H](N[*:1])C(=O)[*:2]].M.[am]}$$$$V2.0)	–
